Laboratory results taken from the supplement of paper PMC10307832.

Key:
Experiment in all cases: relative viability (nuclei count vs DMSO), 5 days (fraction); higher = more cells survive
[1] = compound: C1=CC2=C(C=C(C(=C2N=C1)O)N=NC3=CC4=C(C=C3)C=C(C=C4)S(=O)(=O)O)S(=O)(=O)O + COc1cc2c(Oc3ccc(NC(=O)C4(C(=O)Nc5ccc(F)cc5)CC4)cc3F)ccnc2cc1OCCCN1CCOCC1 [Foretinib] (partner 0.25 µM)
Method in brief: (§1)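 Each reported value is a median over duplicate plates. It expresses relative viability: treated-well nuclei count divided by vehicle-well nuclei count. Lung cancer cell lines in 1536-well plates were dosed by pin tool a day after seeding, alone with one drug or with a fixed anchor-drug dose plus five library-drug doses (not always all listed) in √10 steps, and nuclei were counted after 5 days.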

[2] = compound: C1=CC2=C(C=C(C(=C2N=C1)O)N=NC3=CC4=C(C=C3)C=C(C=C4)S(=O)(=O)O)S(=O)(=O)O + C[C@]1(O)C[C@@H](c2nc(-c3ccc4ccc(-c5ccccc5)nc4c3)c3c(N)nccn32)C1 [Linsitinib] (partner 1 µM)
Method in brief: as §1

[3] = compound: O=C(NC1CCNCC1)c1n[nH]cc1NC(=O)c1c(Cl)cccc1Cl [AT-7519] + CS(=O)(=O)N1CCN(Cc2cc3nc(-c4cccc5[nH]ncc45)nc(N4CCOCC4)c3s2)CC1 [Pictilisib] (partner 1 µM)
Method in brief: as §1

[4] = compound: C1=CC2=C(C=C(C(=C2N=C1)O)N=NC3=CC4=C(C=C3)C=C(C=C4)S(=O)(=O)O)S(=O)(=O)O + C[C@@H](Oc1cc(-c2cnn(C3CCNCC3)c2)cnc1N)c1c(Cl)ccc(F)c1Cl [Crizotinib] (partner 1 µM)
Method in brief: as §1

Cell Line | relative viability ([1]; first compound 0.08 µM) | relative viability ([1]; first compound 0.253 µM) | relative viability ([1]; first compound 0.8 µM) | relative viability ([1]; first compound 2.53 µM) | relative viability ([1]; first compound 8 µM) | relative viability ([2]; first compound 0.08 µM) | relative viability ([2]; first compound 0.253 µM) | relative viability ([2]; first compound 0.8 µM) | relative viability ([2]; first compound 2.53 µM) | relative viability ([2]; first compound 8 µM) | relative viability ([3]; first compound 0.01 µM) | relative viability ([3]; first compound 0.03162 µM) | relative viability ([3]; first compound 0.3162 µM) | relative viability ([3]; first compound 1 µM) | relative viability ([4]; first compound 0.08 µM) | relative viability ([4]; first compound 0.253 µM) | relative viability ([4]; first compound 0.8 µM) | relative viability ([4]; first compound 2.53 µM) | relative viability ([4]; first compound 8 µM)
NCI-H2342 | 1.22 | 1.1 | 1.15 | 1.11 | 1.05 |  |  |  |  |  |  |  |  |  |  |  |  |  | 
HCC-15 | 1.15 | 0.972 | 0.936 | 1.07 | 0.985 | 0.978 | 0.874 | 0.788 | 0.897 | 0.878 | 0.766 | 0.764 | 0.59 | 0.323 | 0.957 | 0.851 | 0.806 | 0.824 | 0.77
A-427 | 0.986 | 1.06 | 1.01 | 1.08 | 1.03 | 1.18 | 1.07 | 1.08 | 1.07 | 1.11 | 0.711 | 0.713 | 0.574 | 0.253 | 1.05 | 0.814 | 0.978 | 1 | 0.876
NCI-H2228 | 0.902 | 0.826 | 0.87 | 0.878 | 0.923 | 0.653 | 0.611 | 0.598 | 0.634 | 0.777 | 0.357 | 0.371 | 0.473 | 0.149 | 0.399 | 0.597 | 0.642 | 0.587 | 0.482
NCI-H1734 | 0.916 | 0.892 | 0.777 | 0.891 | 0.88 | 0.909 | 0.877 | 0.816 | 0.884 | 0.897 | 0.552 | 0.452 | 0.439 | 0.252 | 0.733 | 0.66 | 0.724 | 0.64 | 0.662
PC-14 | 1.16 | 0.905 | 0.815 | 0.971 | 1.11 | 1.03 | 0.936 | 0.962 | 0.948 | 1.1 | 0.66 | 0.59 | 0.521 | 0.258 | 0.944 | 0.833 | 0.907 | 0.892 | 0.941
NCI-H1915 | 1.12 | 1.04 | 1.09 | 1.13 | 1.12 | 1.06 | 1.14 | 1.13 | 1.08 | 1.14 | 0.987 | 0.943 | 0.755 | 0.417 | 0.973 | 0.864 | 0.893 | 0.912 | 0.925
NCI-H1666 | 1.05 | 0.962 | 0.962 | 0.958 | 0.747 | 0.876 | 0.831 | 0.74 | 0.84 | 0.673 | 0.405 | 0.425 | 0.39 | 0.145 | 1.22 | 0.949 | 0.95 | 1.06 | 0.946
HCC-366 | 0.927 | 0.92 | 0.891 | 0.964 | 0.851 | 0.557 | 0.578 | 0.678 | 0.603 | 0.648 | 0.0989 | 0.152 | 0.111 | 0.123 | 0.759 | 0.445 | 0.404 | 0.618 | 0.46
SK-MES-1 | 0.86 | 0.856 | 0.874 | 0.761 | 1.15 | 1.17 | 1.01 | 1.05 | 1.04 | 1.06 | 0.457 | 0.272 | 0.328 | 0.276 | 0.96 | 0.886 | 0.963 | 1 | 0.948
SW 1573 | 1.1 | 1.02 | 1.02 | 1.01 | 0.444 | 0.779 | 0.734 | 0.816 | 0.875 | 0.75 | 0.576 | 0.463 | 0.386 | 0.196 | 0.842 | 0.78 | 0.836 | 0.85 | 0.742
NCI-H661 | 1.12 | 0.989 | 0.981 | 1.08 | 1.04 | 0.74 | 0.57 | 0.489 | 0.498 | 0.512 | 0.398 | 0.386 | 0.399 | 0.289 | 1.03 | 0.905 |  | 1.01 | 0.971
PC-3 [JPC-3] | 1.1 | 1.03 | 1.08 | 0.99 | 0.951 | 0.998 | 0.93 | 0.94 | 0.965 | 0.97 | 0.779 | 0.751 | 0.688 | 0.694 | 1.07 | 1.02 | 0.999 | 0.978 | 0.966
NCI-H1623 | 0.845 | 0.874 | 0.854 | 0.832 | 0.6 |  |  |  |  |  |  |  |  |  |  |  |  |  | 
Calu-6 | 0.887 | 0.846 | 0.92 | 0.886 | 0.912 | 1.08 | 0.976 | 0.911 | 0.926 | 0.969 | 0.863 | 0.919 | 0.689 | 0.131 | 0.96 | 0.761 | 0.763 | 0.817 | 0.821
LC-2-ad | 1.13 | 0.874 | 0.966 | 0.906 | 0.865 | 0.623 | 0.839 | 0.861 | 0.805 | 0.918 | 0.653 | 0.366 | 0.386 | 0.158 | 0.534 | 0.412 | 0.462 | 0.452 | 0.411
CAL-12T | 1.08 | 1.25 | 1.12 | 1.06 | 0.772 | 0.938 | 0.753 | 0.751 | 0.773 | 0.889 |  | 0.514 | 0.214 | 0.193 | 0.69 | 0.528 | 0.711 | 0.932 | 0.717
RERF-LC-KJ | 1.02 | 0.835 | 0.837 | 0.999 | 0.844 | 0.945 | 0.954 | 0.888 | 0.979 | 0.87 | 0.514 | 0.452 | 0.594 | 0.136 | 0.828 | 0.797 | 0.782 | 0.872 | 0.869
